From BindingDB's records for doi:10.1021/acs.jmedchem.7b01854 (Gsk Pharmaceuticals R & D, 2018) come the findings set out here.

Test [1] has as its target C-C chemokine receptor type 10 (Homo sapiens) (UniProt P46092). Briefly: Agonist activity at CCR10 (unknown origin).
Test [2] has the same target. Briefly: Agonist activity at CCR10 (unknown origin). This is another data set of the same source.

C-C chemokine receptor type 10 (Homo sapiens), sequence (P46092 whole entry, looked up): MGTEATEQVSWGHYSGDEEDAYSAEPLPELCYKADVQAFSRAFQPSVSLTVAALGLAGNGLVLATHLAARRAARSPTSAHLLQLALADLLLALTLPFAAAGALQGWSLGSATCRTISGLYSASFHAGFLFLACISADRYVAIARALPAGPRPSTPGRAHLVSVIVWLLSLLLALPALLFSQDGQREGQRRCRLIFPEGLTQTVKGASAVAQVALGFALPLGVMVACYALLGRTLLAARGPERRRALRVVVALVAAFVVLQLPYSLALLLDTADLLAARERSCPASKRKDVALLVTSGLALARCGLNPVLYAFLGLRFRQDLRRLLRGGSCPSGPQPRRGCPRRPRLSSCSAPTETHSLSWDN

Usually EC50 stands for the concentration needed to bring the measured effect to its halfway point. High values mean a less potent agent, low ones a more potent agent. Usually IC50 stands for the point on the concentration scale where inhibition reaches its midpoint. Low readings indicate inhibition by little substance, high ones a need for much substance. For the compound `CC1=CCC[C@H]1NC(=O)Nc1ccc(Cl)c(S(=O)(=O)[C@@]2(C)CCOC2)c1O`, in test [1], the concentration for a half-maximal effect (EC50) was > 10 µM. Also, the IC50 in test [2] was > 10 µM.
